The structures appear in SMILES notation. Values after ≈ are worked out from the molar mass of the structure shown.

The nature of assay [1]: Selectivity ratio of IC50 for human THP1 cells to MIC for isoniazid-, rifampin-,ethambutol-resistant Mycobacterium tuberculosis isolate F. Format: functional, THP-1.
Assay [2] deals with Mycobacterium tuberculosis. Nature of the assay: Antituberculosis activity against isoniazid-, rifampin-, amikacin-, OLF-resistant Mycobacterium tuberculosis isolate H. Format: functional.
Assay [3] has as its system Mycobacterium tuberculosis. Nature of the assay: Antituberculosis activity against isoniazid-, rifampin-resistant Mycobacterium tuberculosis isolate D. Format: functional.
The nature of assay [4]: Selectivity ratio of IC50 for human THP1 cells to MIC for isoniazid-, rifampin-, amikacin-, OLF-resistant Mycobacterium tuberculosis isolate H. Format: functional, THP-1.
Assay [5] can be described thus: Selectivity ratio of IC50 for human THP1 cells to MIC for INH-resistant Mycobacterium tuberculosis isolate C. Format: functional, THP-1.
Assay [6] can be described thus: Selectivity ratio of IC50 for human THP1 cells to MIC for isoniazid-, rifampin-resistant Mycobacterium tuberculosis isolate D. Format: functional, THP-1.
A short description of assay [7]: Selectivity ratio of IC50 for human THP1 cells to MIC for INH-resistant Mycobacterium tuberculosis isolate B. Format: functional, THP-1.
The subject of assay [8] is Mycobacterium tuberculosis. The experiment in a line: Antituberculosis activity against isoniazid-, rifampin-,kanamycin-,OLF-resistant Mycobacterium tuberculosis isolate I. Format: functional.
Assay [9] deals with Mycobacterium tuberculosis. The experiment in a line: Antituberculosis activity against isoniazid-, rifampin-,ethambutol-resistant Mycobacterium tuberculosis isolate F. Format: functional.
The test system of assay [10] is Mycobacterium tuberculosis. Nature of the assay: Antituberculosis activity against isoniazid-resistant Mycobacterium tuberculosis isolate C. Format: functional.
In assay [11] the test system is Mycobacterium tuberculosis. Nature of the assay: Antituberculosis activity against isoniazid-resistant Mycobacterium tuberculosis isolate B. Format: functional.
Assay [12] concerns Mycobacterium tuberculosis. Nature of the assay: Antituberculosis activity against isoniazid-, rifampin-, amikacin-, OLF-resistant Mycobacterium tuberculosis isolate J. Format: functional.
The subject of assay [13] is Mycobacterium tuberculosis. Nature of the assay: Antituberculosis activity against isoniazid-, rifampin-,ethambutol-resistant Mycobacterium tuberculosis isolate G. Format: functional.
The nature of assay [14]: Selectivity ratio of IC50 for human THP1 cells to MIC for isoniazid-, rifampin-,ethambutol-resistant Mycobacterium tuberculosis isolate G. Format: functional, THP-1.
Assay [15] is described as follows: Selectivity ratio of IC50 for human THP1 cells to MIC for isoniazid-, rifampin-,kanamycin-,OLF-resistant Mycobacterium tuberculosis isolate I. Format: functional, THP-1.
Assay [16] is described as follows: Selectivity ratio of IC50 for human THP1 cells to MIC for isoniazid-, rifampin-,streptomycin-resistant Mycobacterium tuberculosis isolate E. Format: functional, THP-1.
Assay [17] has as its system Mycobacterium tuberculosis. Nature of the assay: Antituberculosis activity against isoniazid-, rifampin-,streptomycin-resistant Mycobacterium tuberculosis isolate E. Format: functional.
Assay [18] is described as follows: Selectivity ratio of IC50 for human THP1 cells to MIC for isoniazid-, rifampin-, amikacin-, OLF-resistant Mycobacterium tuberculosis isolate J. Format: functional, THP-1.

In the case of `COc1ccnc(NC(=O)NS(=O)(=O)c2cc(NC(=O)CCl)ccc2Cl)n1`, the Selectivity ratio in assay [1], in assay [4], in [5], in [6], in assay [7] and in assay [14] was 10 in each case. The Selectivity ratio in assay [15], in assay [16] and in assay [18] was 10 each time. For the same compound, the MIC in [2], in assay [3], in [8], in assay [9], in [10] and in [11] was 10 µg/mL (≈ 23 µM) in each case. Also, the minimal inhibitory concentration (MIC) in assay [12], in [13] and in assay [17] was 10 µg/mL (≈ 23 µM) each time.
In the case of `Cc1ccnc(NC(=O)NS(=O)(=O)c2cc(NC(=O)CCl)ccc2Cl)n1`, the Selectivity ratio in [1], in assay [4], in assay [5], in assay [6], in assay [7] and in [14] was 10 each time. Moreover, the Selectivity ratio in assay [15], in [16] and in assay [18] was 10 each time. Moreover, the MIC in [2], in [3], in [8], in [9], in assay [10] and in assay [11] was 10 µg/mL (≈ 23.9 µM) in each case. Also, the MIC in assay [12], in assay [13] and in assay [17] was 10 µg/mL (≈ 23.9 µM) throughout.

Usually MIC stands for the smallest concentration in the dilution series that meets the test's criterion for growth inhibition.

Values taken from ChEMBL document CHEMBL1949543, “Synthesis and evaluation of novel monosubstituted sulfonylurea derivatives as antituberculosis agents” (Eur J Med Chem, 2012).
